We go through one molecule from article PMC5218480 (PLoS ONE, 2017).

SMILES strings stand for the structures.

The subject of this assay is MV-4-11 cells. Description: Gene expression microarray analysis (Affymetrix PrimeView) and GSEA. In kind it is cell-based, human. Also on record: RFU PODN (11730768_x_at) / Fold change /veh PODN (11730768_x_at) / RFU LINC00158 (11744669_a_at) / Fold change /veh LINC00158 (11744669_a_at) / RFU DUSP10 (11751237_a_at) / Fold change /veh DUSP10 (11751237_a_at) / RFU ID3 (11757404_x_at) / Fold change /veh ID3 (11757404_x_at) / RFU PLEKHG5 (11737974_s_at) / Fold change /veh PLEKHG5 (11737974_s_at) / RFU LRRC4B (11730491_at) / Fold change /veh LRRC4B (11730491_at) / RFU GIMAP4 (11747438_a_at) / Fold change /veh GIMAP4 (11747438_a_at) / RFU KRT8 (11758183_x_at) / Fold change /veh KRT8 (11758183_x_at) / RFU CNN1 (11734310_a_at) / Fold change /veh CNN1 (11734310_a_at) / RFU VPS37D (11726825_at) / Fold change /veh VPS37D (11726825_at) / RFU C10orf10 (11716522_x_at) / Fold change /veh C10orf10 (11716522_x_at) / RFU KIR2DL2 /// KIR2DL4 /// KIR2DL5A /// KIR2DL5B /// KIR2DS1 /// KIR2DS2 /// KIR2DS3 /// KIR2DS4 /// KIR3DL3 /// KIR3DL3 /// KIR3DS1 (11738374_at) / Fold change /veh KIR2DL2 /// KIR2DL4 /// KIR2DL5A /// KIR2DL5B /// KIR2DS1 /// KIR2DS2 /// KIR2DS3 /// KIR2DS4 /// KIR3DL3 /// KIR3DL3 /// KIR3DS1 (11738374_at) / RFU C1QL1 (11718748_at) / Fold change /veh C1QL1 (11718748_at) / RFU TMPRSS4 (11747572_a_at) / Fold change /veh TMPRSS4 (11747572_a_at) / RFU HAMP (11756126_x_at) / Fold change /veh HAMP (11756126_x_at) / RFU RNFT2 (11725882_a_at) / Fold change /veh RNFT2 (11725882_a_at) / RFU NR4A2 (11747474_a_at) / Fold change /veh NR4A2 (11747474_a_at) / RFU ABCC12 (11746883_a_at) / Fold change /veh ABCC12 (11746883_a_at) / RFU TMEM136 (11760407_x_at) / Fold change /veh TMEM136 (11760407_x_at) / RFU CLDN22 /// WWC2 (11732394_at) / Fold change /veh CLDN22 /// WWC2 (11732394_at) / RFU HLA-DPB1 (11760878_x_at) / Fold change /veh HLA-DPB1 (11760878_x_at) / RFU SPINT1 (11716480_a_at) / Fold change /veh SPINT1 (11716480_a_at) / RFU GAP43 (11754022_s_at) / Fold change /veh GAP43 (11754022_s_at) / RFU A4GNT (11735810_at) / Fold change /veh A4GNT (11735810_at) / RFU PRB3 (11715151_x_at) / Fold change /veh PRB3 (11715151_x_at) / RFU TUBB4B (11761932_at) / Fold change /veh TUBB4B (11761932_at) / RFU CAPN14 (11732068_a_at) / Fold change /veh CAPN14 (11732068_a_at) / RFU TMCC2 (11721928_a_at) / Fold change /veh TMCC2 (11721928_a_at) / RFU IRGQ (11745062_a_at) / Fold change /veh IRGQ (11745062_a_at) / RFU FAM174B (11720279_a_at) / Fold change /veh FAM174B (11720279_a_at) / RFU TMPRSS4 (11748680_a_at) / Fold change /veh TMPRSS4 (11748680_a_at) / RFU FAM212B (11763350_a_at) / Fold change /veh FAM212B (11763350_a_at) / RFU PLEKHG5 (11743358_a_at) / Fold change /veh PLEKHG5 (11743358_a_at) / RFU ZSCAN30 (11745921_a_at) / Fold change /veh ZSCAN30 (11745921_a_at) / RFU CMKLR1 (11741424_a_at) / Fold change /veh CMKLR1 (11741424_a_at) / RFU LOC101060620 /// MAPK8IP1 (11723275_at) / Fold change /veh LOC101060620 /// MAPK8IP1 (11723275_at) / RFU SPTSSB (11747773_x_at) / Fold change /veh SPTSSB (11747773_x_at) / RFU PRSS12 (11739890_at) / Fold change /veh PRSS12 (11739890_at) / RFU BIN1 (11741810_x_at) / Fold change /veh BIN1 (11741810_x_at) / RFU WNT11 (11732464_a_at) / Fold change /veh WNT11 (11732464_a_at) / RFU C10orf10 (11716521_a_at) / Fold change /veh C10orf10 (11716521_a_at) / RFU C5orf56 (11738089_at) / Fold change /veh C5orf56 (11738089_at) / RFU CYB561 (11721691_x_at) / Fold change /veh CYB561 (11721691_x_at) / RFU ANKRD19P (11752326_a_at) / Fold change /veh ANKRD19P (11752326_a_at) / RFU OR2T12 /// OR2T33 /// OR2T8 (11738714_s_at) / Fold change /veh OR2T12 /// OR2T33 /// OR2T8 (11738714_s_at) / RFU VCAN (11748164_a_at) / Fold change /veh VCAN (11748164_a_at) / RFU JSRP1 (11732532_at) / Fold change /veh JSRP1 (11732532_at) / RFU KRTAP10-11 (11738290_x_at) / Fold change /veh KRTAP10-11 (11738290_x_at) / RFU MYO3A (11730013_a_at) / Fold change /veh MYO3A (11730013_a_at) / RFU EBF3 (11725865_a_at) / Fold change /veh EBF3 (11725865_a_at) / RFU CAMK2N1 (11719241_x_at) / Fold change /veh CAMK2N1 (11719241_x_at) / RFU C5orf56 (11738088_a_at) / Fold change /veh C5orf56 (11738088_a_at) / RFU OLFML3 (11715873_a_at) / Fold change /veh OLFML3 (11715873_a_at) / RFU LOC100653217 /// NTM (11731650_a_at) / Fold change /veh LOC100653217 /// NTM (11731650_a_at) / RFU MAPK11 (11762145_a_at) / Fold change /veh MAPK11 (11762145_a_at) / RFU FIZ1 (11724087_x_at) / Fold change /veh FIZ1 (11724087_x_at) / RFU OASL (11726364_x_at) / Fold change /veh OASL (11726364_x_at) / RFU SOX15 (11748057_x_at) / Fold change /veh SOX15 (11748057_x_at) / RFU CD79A (11719716_a_at) / Fold change /veh CD79A (11719716_a_at) / RFU HIST1H1D (11736915_at) / Fold change /veh HIST1H1D (11736915_at) / RFU CASKIN2 (11723855_a_at) / Fold change /veh CASKIN2 (11723855_a_at) / RFU LOC730098 (11760151_x_at) / Fold change /veh LOC730098 (11760151_x_at) / RFU OR4N2 (11742367_at) / Fold change /veh OR4N2 (11742367_at) / RFU PRRT2 (11749266_a_at) / Fold change /veh PRRT2 (11749266_a_at) / RFU SNX32 (11753110_a_at) / Fold change /veh SNX32 (11753110_a_at) / RFU CDHR5 (11726645_a_at) / Fold change /veh CDHR5 (11726645_a_at) / RFU RCAN1 (11760418_a_at) / Fold change /veh RCAN1 (11760418_a_at) / RFU FAM167A (11723789_a_at) / Fold change /veh FAM167A (11723789_a_at) / RFU FAM26E (11764081_at) / Fold change /veh FAM26E (11764081_at) / RFU ISYNA1 (11749810_s_at) / Fold change /veh ISYNA1 (11749810_s_at) / RFU ACY1 (11761880_at) / Fold change /veh ACY1 (11761880_at) / RFU 11764098_at / Fold change /veh 11764098_at / RFU SAMD14 (11745864_x_at) / Fold change /veh SAMD14 (11745864_x_at) / RFU NPB (11741838_a_at) / Fold change /veh NPB (11741838_a_at) / RFU TMPRSS6 (11731388_a_at) / Fold change /veh TMPRSS6 (11731388_a_at) / RFU KRTAP10-2 (11738614_at) / Fold change /veh KRTAP10-2 (11738614_at) / RFU ARHGAP8 /// PRR5-ARHGAP8 (11727945_x_at) / Fold change /veh ARHGAP8 /// PRR5-ARHGAP8 (11727945_x_at) / RFU KRTAP5-7 /// NADSYN1 (11734609_at) / Fold change /veh KRTAP5-7 /// NADSYN1 (11734609_at) / RFU RASL12 (11751679_a_at) / Fold change /veh RASL12 (11751679_a_at) / RFU CDKN2B (11736163_a_at) / Fold change /veh CDKN2B (11736163_a_at) / RFU PRF1 (11729649_at) / Fold change /veh PRF1 (11729649_at) / RFU, ZNF638 /// ZNF638-IT1 / Fold change vs veh, ZNF638 /// ZNF638-IT1 / RFU, PANK3 / Fold change vs veh, PANK3 / RFU, SH3YL1 / Fold change vs veh, SH3YL1 / RFU, ZEB2 / Fold change vs veh, ZEB2 / RFU, NRIP1 / Fold change vs veh, NRIP1 / RFU, PTTG1IP / Fold change vs veh, PTTG1IP / RFU, CAPN2 / Fold change vs veh, CAPN2 / RFU, MED14 / Fold change vs veh, MED14 / RFU, SNORA58 / Fold change vs veh, SNORA58 / RFU, C1orf63 / Fold change vs veh, C1orf63 / RFU, LRRFIP1 / Fold change vs veh, LRRFIP1 / RFU, NDUFAF7 / Fold change vs veh, NDUFAF7 / RFU, SLC12A2 / Fold change vs veh, SLC12A2 / RFU, IBTK / Fold change vs veh, IBTK / RFU, ESF1 / Fold change vs veh, ESF1 / Fold change vs veh, TMEM50B / RFU, TAOK1 / Fold change vs veh, TAOK1 / RFU, ACBD3 / Fold change vs veh, ACBD3 / RFU, TMA16 / Fold change vs veh, TMA16 / RFU, RWDD3 / Fold change vs veh, RWDD3 / RFU, BCAT1 / Fold change vs veh, BCAT1 / RFU, EDEM3 / Fold change vs veh, EDEM3 / RFU, TMEM33 / Fold change vs veh, TMEM33 / RFU, WDR75 / Fold change vs veh, WDR75 / RFU, AHCTF1 / Fold change vs veh, AHCTF1 / RFU, TFRC / Fold change vs veh, TFRC / RFU, ZDHHC17 / Fold change vs veh, ZDHHC17 / RFU, NOM1 / Fold change vs veh, NOM1 / RFU, ARL8B / Fold change vs veh, ARL8B / RFU, ZBTB11 / Fold change vs veh, ZBTB11 / RFU, TAMM41 / Fold change vs veh, TAMM41 / RFU, KIAA1704 /// LOC100996395 / Fold change vs veh, KIAA1704 /// LOC100996395 / RFU, ING1 / Fold change vs veh, ING1 / RFU, TRMT61B / Fold change vs veh, TRMT61B / RFU, FUBP3 / Fold change vs veh, FUBP3 / RFU, TP53 / Fold change vs veh, TP53 / RFU, TNKS2 / Fold change vs veh, TNKS2 / RFU, ZFP14 / Fold change vs veh, ZFP14 / RFU, ACTR2 / Fold change vs veh, ACTR2 / RFU, PPP3R1 / Fold change vs veh, PPP3R1 / RFU, PIK3R1 / Fold change vs veh, PIK3R1 / RFU, HNRNPA1 / Fold change vs veh, HNRNPA1 / RFU, RNF170 / Fold change vs veh, RNF170 / RFU, ZNF28 / Fold change vs veh, ZNF28 / RFU, RNGTT / Fold change vs veh, RNGTT / RFU, OGT / Fold change vs veh, OGT / RFU, BRD1 / Fold change vs veh, BRD1 / RFU, MARS / Fold change vs veh, MARS / RFU, ZNF655 / Fold change vs veh, ZNF655 / RFU, FAHD1 / Fold change vs veh, FAHD1 / RFU, BDP1 / Fold change vs veh, BDP1 / RFU, LRRCC1 / Fold change vs veh, LRRCC1 / RFU, ARID1A / Fold change vs veh, ARID1A / RFU, ZNF146 / Fold change vs veh, ZNF146 / RFU, ZNF330 / Fold change vs veh, ZNF330 / RFU, GPN3 / Fold change vs veh, GPN3 / RFU, C9orf123 / Fold change vs veh, C9orf123 / RFU, N4BP2L2 / Fold change vs veh, N4BP2L2 / RFU, ARFIP1 / Fold change vs veh, ARFIP1 / RFU, FAM179B / Fold change vs veh, FAM179B / RFU, BCL10 / Fold change vs veh, BCL10 / RFU, UHRF1BP1L / Fold change vs veh, UHRF1BP1L / RFU, BET1 / Fold change vs veh, BET1 / RFU, CNOT2 / Fold change vs veh, CNOT2 / RFU, ZNF268 / Fold change vs veh, ZNF268 / Fold change vs veh, ZNF507 / RFU, DGCR2 / Fold change vs veh, DGCR2 / RFU, WDSUB1 / Fold change vs veh, WDSUB1 / Fold change vs veh, HSP90B1 /// MIR3652 / RFU, ADSS / Fold change vs veh, ADSS / RFU, GK / Fold change vs veh, GK / RFU, ZNF148 / Fold change vs veh, ZNF148 / RFU, TAF9 / Fold change vs veh, TAF9 / RFU, SLC1A5 / Fold change vs veh, SLC1A5 / RFU, SLMO2 / Fold change vs veh, SLMO2 / RFU, ABCC4 / Fold change vs veh, ABCC4 / RFU, LOC101060439 /// RAP1B / Fold change vs veh, LOC101060439 /// RAP1B / RFU, RFX7 / Fold change vs veh, RFX7 / RFU, GTPBP10 / Fold change vs veh, GTPBP10 / RFU, CNEP1R1 / Fold change vs veh, CNEP1R1 / RFU, BIVM-ERCC5 /// ERCC5 / Fold change vs veh, BIVM-ERCC5 /// ERCC5 / RFU, ILF3 / Fold change vs veh, ILF3 / RFU 11762660_at / Fold change /veh 11762660_at / RFU VCAN (11757783_s_at) / Fold change /veh VCAN (11757783_s_at) / RFU DDX43 (11728927_at) / Fold change /veh DDX43 (11728927_at) / RFU KRT8 (11758188_x_at) / Fold change /veh KRT8 (11758188_x_at) / RFU NKD1 (11759106_at) / Fold change /veh NKD1 (11759106_at) / RFU SRD5A1 (11742802_a_at) / Fold change /veh SRD5A1 (11742802_a_at) / RFU TPSAB1 /// TPSB2 (11721975_s_at) / Fold change /veh TPSAB1 /// TPSB2 (11721975_s_at) / RFU GSTM3 (11746129_a_at) / Fold change /veh GSTM3 (11746129_a_at) / RFU IL23R (11737362_x_at) / Fold change /veh IL23R (11737362_x_at) / RFU TMEM51 (11727254_a_at) / Fold change /veh TMEM51 (11727254_a_at) / RFU PIWIL2 (11732686_x_at) / Fold change /veh PIWIL2 (11732686_x_at) / RFU ORM1 (11744905_x_at) / Fold change /veh ORM1 (11744905_x_at) / RFU CCDC152 (11743942_at) / Fold change /veh CCDC152 (11743942_at) / RFU ECM1 (11717891_a_at) / Fold change /veh ECM1 (11717891_a_at) / RFU IL23R (11748794_a_at) / Fold change /veh IL23R (11748794_a_at) / RFU TNFAIP8L3 (11732012_x_at) / Fold change /veh TNFAIP8L3 (11732012_x_at) / RFU MBOAT4 (11741988_at) / Fold change /veh MBOAT4 (11741988_at) / RFU 11764193_at / Fold change /veh 11764193_at / RFU TMEM53 (11763286_at) / Fold change /veh TMEM53 (11763286_at) / RFU MAGEB2 (11727129_at) / Fold change /veh MAGEB2 (11727129_at) / RFU TMEM200A (11744735_a_at) / Fold change /veh TMEM200A (11744735_a_at) / RFU CCDC152 (11751479_a_at) / Fold change /veh CCDC152 (11751479_a_at) / RFU FAM211A (11726209_a_at) / Fold change /veh FAM211A (11726209_a_at) / RFU RGS16 (11746705_a_at) / Fold change /veh RGS16 (11746705_a_at) / RFU VCAN (11755009_s_at) / Fold change /veh VCAN (11755009_s_at) / RFU RHOB (11743442_s_at) / Fold change /veh RHOB (11743442_s_at) / RFU RGS16 (11720943_a_at) / Fold change /veh RGS16 (11720943_a_at) / RFU RGS16 (11720944_at) / Fold change /veh RGS16 (11720944_at) / RFU, VPS4B / Fold change vs veh, VPS4B / RFU, CREB1 / Fold change vs veh, CREB1 / RFU, DNAJC13 / Fold change vs veh, DNAJC13 / RFU, GNAQ / Fold change vs veh, GNAQ / RFU, CDK5R1 / Fold change vs veh, CDK5R1 / RFU, ZRANB3 / Fold change vs veh, ZRANB3 / RFU, CUL4A / Fold change vs veh, CUL4A / RFU, CCNY / Fold change vs veh, CCNY / RFU, UFL1 / Fold change vs veh, UFL1 / RFU, COG3 / Fold change vs veh, COG3 / RFU, DIAPH2 / Fold change vs veh, DIAPH2 / RFU, SKA2 / Fold change vs veh, SKA2 / RFU, AFF3 / Fold change vs veh, AFF3 / RFU, LMF1 / Fold change vs veh, LMF1 / RFU, IPO11 / Fold change vs veh, IPO11 / RFU, DFFB / Fold change vs veh, DFFB / RFU, FOXP1 / Fold change vs veh, FOXP1 / RFU, CARD8 / Fold change vs veh, CARD8 / RFU, STRN3 / Fold change vs veh, STRN3 / RFU, ADK / Fold change vs veh, ADK / RFU, RASSF2 / Fold change vs veh, RASSF2 / RFU, WIPF1 / Fold change vs veh, WIPF1 / RFU, LARP1B / Fold change vs veh, LARP1B / RFU, RASA1 / Fold change vs veh, RASA1 / RFU, RB1 / Fold change vs veh, RB1 / RFU, PPFIA1 / Fold change vs veh, PPFIA1 / RFU, MAT2A / Fold change vs veh, MAT2A / RFU, CCT5 / Fold change vs veh, CCT5 / RFU, WDR92 / Fold change vs veh, WDR92 / RFU, CUX1 / Fold change vs veh, CUX1 / RFU, TTC7A / Fold change vs veh, TTC7A / RFU, TMEM135 / Fold change vs veh, TMEM135 / RFU, DEPTOR / Fold change vs veh, DEPTOR / RFU, CPM / Fold change vs veh, CPM / RFU, DNAJB6 / Fold change vs veh, DNAJB6 / RFU, CACNA2D3 / Fold change vs veh, CACNA2D3 / RFU, DTX4 / Fold change vs veh, DTX4 / RFU, TFCP2 / Fold change vs veh, TFCP2 / RFU, GMCL1 /// GMCL1P1 / Fold change vs veh, GMCL1 /// GMCL1P1 / RFU, AEBP2 / Fold change vs veh, AEBP2 / RFU, SNHG1 /// SNORD22 /// SNORD25 /// SNORD26 /// SNORD27 /// SNORD28 /// SNORD29 /// SNORD31 / Fold change vs veh, SNHG1 /// SNORD22 /// SNORD25 /// SNORD26 /// SNORD27 /// SNORD28 /// SNORD29 /// SNORD31 / Fold change (Aza/veh), C12orf56 (ProbeSet 11735607_a_at) / Fold change (ACY-1035/veh), C12orf56 (ProbeSet 11735607_a_at) / Fold change (Aza/veh), FGFR1OP (ProbeSet 11751329_s_at) / Fold change (ACY-1035/veh), FGFR1OP (ProbeSet 11751329_s_at) / Fold change (Aza/veh), VPS36 (ProbeSet 11739960_a_at) / Fold change (ACY-1035/veh), VPS36 (ProbeSet 11739960_a_at) / RFU SYPL1 (11715823_x_at) / Fold change /veh SYPL1 (11715823_x_at) / RFU IGFBP7 (11715501_s_at) / Fold change /veh IGFBP7 (11715501_s_at) / RFU REEP3 (11722064_at) / Fold change /veh REEP3 (11722064_at) / RFU IGLL1 (11728026_x_at) / Fold change /veh IGLL1 (11728026_x_at): dose or concentration left out as unconfirmed. Particulars: MV-4-11 cells, 48 hours.

Consider `Nc1ccc(-c2cccs2)cc1NC(=O)c1ccc2c(c1)cc(C1CC1)n2CCN1CCOCC1` [ACY-1035], for which the “RFU CAPN14 (11732068_a_at)” value is listed as 10.99 RFU.
